Experimental data taken from the NIST ThermoML archive (doi:10.1021/je100932m).
± gives the expanded uncertainty stated by the source.

Conditions: Liquid

SMILES | vapor or sublimation pressure (337.57 K) | vapor or sublimation pressure (329.97 K)
CO [methanol] | 101.3 ± 0.86 kPa | –
COC(C)=O [methyl ethanoate] | – | 101.3 ± 0.86 kPa
